“Also recorded” adds a separate entry of the source.
Tests used:
murine lung [1] = assay: BAL inflammation (BAL cell recovery) after PAMP administration in mice breathing room air or exposed to cigarette smoke; format: in vivo; details: for BAL inflammation: interaction with cigarette smoke (CS-exposed vs non-CS animals): CS exposure 2 weeks before and during dosing; for number of cells recovered per ml of BAL fluid: control (non-CS) animals, dose series
Protocol: During the first week they received a half cigarette, twice a day, to allow for acclimation. During the remainder of the exposure they received three cigarettes per day (one cigarette per session/three sessions per day).
(§1) CS exposure was continued during this interval.
Mice were sacrificed using intraperitoneal ketamine/xylazine injection and the trachea was cannulated and perfused with two 0.9 ml aliquots of cold saline. The cellular contents and BAL fluid were separated by centrifugation and the BAL fluid was stored in aliquots at −80° C.

murine lung [2] = assay: Alveolar remodeling / emphysema (mean chord length, lung morphometry); details: for tissue / alveolar remodeling: control or CS-exposed animals
murine lung [3] = assay: TUNEL evaluation of lung cell apoptosis; format: in vivo, mice
Protocol: End labeling of exposed 3′-OH ends of DNA fragments in paraffin-embedded tissue was undertaken with the TUNEL in situ cell death detection kit AP (Roche Diagnostics) using the instructions provided by the manufacturer. Staining specificity was assessed by comparing the signal that was seen when terminal transferase was included and excluded from the reaction. After staining, a minimum of 20 fields of alveoli were randomly chosen, and 500 nuclei were counted per lung. The labeled cells were expressed as a percentage of total nuclei.
as §1
End labeling of exposed 3′-OH ends of DNA fragments in paraffin embedded tissue was undertaken with the TUNEL in situ cell death detection kit AP (Roche Diagnostics, Indianapolis, Ind.) using the instructions provided by the manufacturer. Staining specificity was assessed by comparing the signal that was seen when terminal transferase was included and excluded from the reaction. After staining, a minimum of 10 fields of alveoli was randomly chosen and 300 nuclei of structural cells were counted per lung. The labeled cells were expressed as a percentage of total nuclei.

PKR = assay: Immunoblot of phospho-PKR in whole lung lysates; format: in vivo, mice
Protocol: as §1
Whole lung lysates were prepared and the total protein content of each was measured using the DC protein assay reagents (Bio-Rad Inc.). Equal amounts of sample proteins were fractionated on 4-15% SDS-PAGE gels under reducing conditions and transferred to polyvinylidene difluoride membranes. The membranes were then incubated in blocking buffer (5% w/v nonfat dry milk in TBS/0.05% Tween) for 1 hour at room temperature. The membranes were then incubated with primary antibodies overnight at 4° C., washed three times in TBS/0.05% Tween and incubated for 2 h at room temperature with appropriate secondary antibodies. Immunoreactive signal was detected using a chemiluminescent procedure (ECL Western blotting detection system; Amersham Life Science) according to the manufacturer's instructions.

IFN-γ = assay: BAL IFN-γ ELISA; format: in vivo, mice; details: for IFN-γ level: after second dose
Protocol: as §1
(§2) The levels of BAL IL-18 (MBL, Japan), IL-12/IL-23p40 and IFN-γ (R&D Systems) were determined using commercial ELISA kits as per the manufacturer's instructions.

IL-18 = assay: BAL IL-18 ELISA; format: in vivo, mice
Protocol: Mice were euthanized, the trachea was isolated by blunt dissection, and tubing was secured in the airway. Three volumes of 0.6 ml of PBS were then instilled and gently aspirated and pooled. Each BAL fluid sample was centrifuged, and the supernatants were stored in −70° C. until used. Lung lysates were also prepared. The levels of IL-18 were determined using a commercial ELISA kit (R&D Systems) as per the manufacturer's instructions.
as §1, §2

[4] = test system: IL-18, IL-12/23 p40 and Type I and Type II IFNs; assay: Production of IL-18, IL-12/23 p40 and Type I and Type II IFNs in BAL (stated jointly); format: in vivo, mice; details: versus vehicle controls
IL-12/23 p40 = assay: BAL IL-12/IL-23p40 ELISA; format: in vivo, mice; details: after second dose
Protocol: as §1, §2

lipopoly-saccharide [LPS] was tested, and the “BAL inflammation: interaction with cigarette smoke (CS-exposed vs non-CS animals)” value (murine lung [1]) was “not a significant difference”, the “number of cells recovered per ml of BAL fluid” value (murine lung [1]) was “dose dependent” and the “tissue / alveolar remodeling” value (murine lung [2]) was “no tissue remodeling was observed; also recorded: did not have similar effects”.
With poly(I:C) the TUNEL score (murine lung [3]; IL-18Rα+/+, IFN-γ+/+, PKR+/+ animals, CS) was “about 12%”, the TUNEL score (murine lung [3]; IL-18Rα+/+, IFN-γ+/+, PKR+/+ animals, room air) was “about 8%” and the TUNEL score (murine lung [3]; IL-18Rα−/−, IFN-γ−/− and PKR−/− animals, CS) was “about 9%”. For the same compound, the TUNEL value (murine lung [3]; IL-18Rα−/−, IFN-γ−/− and PKR−/− animals, room air) was “about 6.5%”, the TUNEL score (murine lung [3]; combined with CS) was “about 17” and the TUNEL score (murine lung [3]; given alone (no CS)) was “about 8”. For the same compound, the “dose at which enhanced PKR activation was observed” value (PKR; CS-exposed mice) was no less than 15 µg/mL, the phospho-PKR expression (PKR; wild-type animals, given alone) was “modestly up-regulated” and the “phospho-PKR expression / PKR activation” value (PKR; wild-type animals, with CS exposure) was “further increase; also recorded: greatly enhanced”. The IFN-γ level (IFN-γ; CS animals) was “about 90 pg/ml”, the IFN-γ expression (IFN-γ; IL-18Rα−/− animals, CS) was “about 35 pg/ml” and the IFN-γ level (IFN-γ; control animals) was “about 10 pg/ml”. For the same compound, the IFN-γ expression (IFN-γ; wild-type animals, CS) was “about 110 pg/ml”, the IFN-γ expression (IFN-γ; wild-type animals, no CS) was “about 35 pg/ml” and the IL-18 level (IL-18; CS animals, second dose) was “about 100 pg/ml”. For the same compound, the IL-18 level (IL-18; both CS and non-CS animals, by week 4) was 90 to 100 pg/mL, the IL-18 level (IL-18; non-CS animals, second dose) was “about 20 pg/ml” and the “BAL inflammation: interaction with cigarette smoke (CS-exposed vs non-CS animals)” value (murine lung [1]) was “significantly exacerbated; also recorded: synergistic”. The “dose giving significant interaction with CS on inflammation” value (murine lung [1]; CS-exposed mice) was no less than 15 µg, the “number of cells recovered per ml of BAL fluid” value (murine lung [1]) was “dose dependent” and the “morphometrically determined alveolar chord length” value (murine lung [2]; 4 doses in CS-exposed mice) was “significant increases”. The “increase in alveolar size” value (murine lung [2]; 4 doses in RA-exposed mice) was “did not achieve statistical significance”, the “dose at which CS interaction on alveolar/airway remodeling could be appreciated” value (murine lung [2]; CS-exposed mice) was no less than 15 µg and the mean chord length (murine lung [2]; IL-18Rα−/− and IFN-γ−/− animals exposed to CS) was “about 70 microns”. The mean chord length (murine lung [2]; PKR (null) animals exposed to CS) was “about 70 microns”, the mean chord length (murine lung [2]; PKR+/+ animals exposed to CS) was “about 85 microns” and the mean chord length (murine lung [2]; PKR+/+ animals, no CS) was “about 65 microns”. For the same compound, the mean chord length (murine lung [2]; PKR−/− animals, no CS) was roughly 62 microns, the mean chord length (murine lung [2]; administered and exposed to CS, controls about 55 microns) was “about 90 microns” and the mean chord length (murine lung [2]; wild-type, IL-18Rα−/− and IFN-γ−/− animals, no CS) was “about 60 microns”. The “stimulation of IL-18, IL-12/23 p40 and Type I and Type II IFNs” value [4] was “potent stimulator”, the IL-12/23 level (IL-12/23 p40; CS animals, relative to non-CS) was “about twice that” and the IL-12/23 level (IL-12/23 p40; non-CS animals) was “about 3000 pg/ml”.
With `CC(C)Cn1cnc2c(N)nc3ccccc3c21` [IMQ, imiquimod] the “tissue / alveolar remodeling” value (murine lung [2]) was “did not have similar effects”.
In the case of `CCNCc1nc2c(N)nc3ccccc3c2n1CC(C)(C)O` [GDQ, gardiquimod], the “BAL inflammation: interaction with cigarette smoke (CS-exposed vs non-CS animals)” value (murine lung [1]) is reported as “not significantl”, the BAL inflammation (murine lung [1]; control animals, 5 μg doses) is reported as “no effect” and the “tissue / alveolar remodeling” value (murine lung [2]) is reported as “no effect; also recorded: did not have similar effects”.

Reference: patent US20100247538A1, “IL-18 and Protein Kinase R Inhibition for the Treatment of COPD” (Yale University, priority 2007, published 2010)
